Calls of active or inactive are those of the source. For most assays here, no stated cut-off is given here; in the data, actives have a measured EC50 and inactives only a lower limit.
Assays:
[1] = tested on: BJ; assay: cytotoxicity toward BJ-TERT fibroblasts, dose response, cell-based, RAS-independent, luminescence (AID 1933); assay type: functional; details: Homo sapiens
[2] = tested on: BJ; assay: cells; assay type: functional, cell-based; details: Homo sapiens
[3] = tested on: BJ; assay: cytotoxicity toward BJ-TERT-LT-ST fibroblasts, dose response, cell-based, RAS-independent, luminescence (AID 1935); assay type: functional; details: Homo sapiens;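 further: BJ fibroblasts immortalized with TERT plus LT and ST oncogenes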
[4] = cytotoxicity toward DRD oncogenic fibroblasts, dose response, cell-based, non-viral oncogenic, luminescence (AID 1934); assay type: functional; details: Homo sapiens
[5] = inhibitors of firefly luciferase expression or activity, dose response, H4 neuroglioma cells, luminescence (AID 1990); assay type: functional, cell-based
[6] = Luminescence Cell-Based Dose Response HTS to Identify Inhibitors of 5'UTR Stem-Loop Driven Prion Protein mRNA Translation in H4 Neuroglioblastoma Cells. [Related pubchem assays: 1827 (Project Summary), 1813 (Primary HTS)]; assay type: functional
[7] = inhibitors of SNCA 5'UTR-driven reporter translation, confirmation, H4 neuroglioma cells, luminescence (AID 1988); assay type: functional, cell-based
[8] = cytotoxicity in HEK-293T cells, dose response, cytotoxicity control for TCR NF-kB inhibitor project, luminescence, T-cell screen hits (AID 489026); assay type: functional, cell-based;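 further: cells exposed to compound about 14 hours before the viability readout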
[9] = molecular target: Paired box protein Pax-8 (Homo sapiens, UniProt Q06710); assay: inhibitors of PAX8-driven TPO luciferase reporter, dose response, RMG-I cells, cherry-pick (AID 687027); assay type: functional, cell-based;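 further: luciferase reporter driven by Pax8 target thyroperoxidase promoter measured by SteadyGlo luminescence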
Paired box protein Pax-8, sequence (Q06710 whole entry): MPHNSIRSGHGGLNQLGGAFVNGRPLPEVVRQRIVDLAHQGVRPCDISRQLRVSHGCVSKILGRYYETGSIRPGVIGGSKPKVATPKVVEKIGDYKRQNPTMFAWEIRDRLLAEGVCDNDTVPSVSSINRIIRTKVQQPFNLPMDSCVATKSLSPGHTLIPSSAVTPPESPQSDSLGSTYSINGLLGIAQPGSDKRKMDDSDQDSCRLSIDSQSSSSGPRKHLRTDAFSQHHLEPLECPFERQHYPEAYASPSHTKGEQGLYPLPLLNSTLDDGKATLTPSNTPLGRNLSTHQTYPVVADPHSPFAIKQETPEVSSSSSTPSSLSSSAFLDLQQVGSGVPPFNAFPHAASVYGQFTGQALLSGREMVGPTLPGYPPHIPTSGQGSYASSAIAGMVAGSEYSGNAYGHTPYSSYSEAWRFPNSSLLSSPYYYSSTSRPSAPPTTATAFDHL

[10] = molecular target: T1, Rac GTPase-activating protein 1 (Homo sapiens, UniProt Q9H0H5); assay: MgcRacGAP GTPase-activating activity inhibitors, confirmation, biochemical, ADP Hunter fluorescence, primary and confirmatory (AID 624330); assay type: functional
T1 sequence (Q9H0H5 whole entry): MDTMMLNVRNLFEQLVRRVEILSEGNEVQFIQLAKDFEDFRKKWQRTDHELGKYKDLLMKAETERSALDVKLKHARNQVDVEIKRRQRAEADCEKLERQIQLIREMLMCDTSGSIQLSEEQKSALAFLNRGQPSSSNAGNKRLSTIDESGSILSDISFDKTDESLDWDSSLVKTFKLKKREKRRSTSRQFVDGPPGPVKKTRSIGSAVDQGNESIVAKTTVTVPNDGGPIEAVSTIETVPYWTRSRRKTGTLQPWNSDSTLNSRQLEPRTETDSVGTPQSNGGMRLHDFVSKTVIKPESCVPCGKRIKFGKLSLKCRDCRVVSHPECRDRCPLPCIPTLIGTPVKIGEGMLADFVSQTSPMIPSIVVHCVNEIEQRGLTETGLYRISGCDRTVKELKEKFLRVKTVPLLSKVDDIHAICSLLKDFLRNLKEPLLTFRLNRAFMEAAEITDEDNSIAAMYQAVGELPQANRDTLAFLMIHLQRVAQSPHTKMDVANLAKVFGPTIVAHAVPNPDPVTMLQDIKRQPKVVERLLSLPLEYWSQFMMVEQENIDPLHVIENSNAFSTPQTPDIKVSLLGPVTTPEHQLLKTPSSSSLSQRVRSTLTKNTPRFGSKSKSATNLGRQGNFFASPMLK

[11] = molecular target: T2, Histone-lysine N-methyltransferase NSD2 (Homo sapiens, UniProt O96028); assay type: biochemical
T2 sequence (O96028 whole entry): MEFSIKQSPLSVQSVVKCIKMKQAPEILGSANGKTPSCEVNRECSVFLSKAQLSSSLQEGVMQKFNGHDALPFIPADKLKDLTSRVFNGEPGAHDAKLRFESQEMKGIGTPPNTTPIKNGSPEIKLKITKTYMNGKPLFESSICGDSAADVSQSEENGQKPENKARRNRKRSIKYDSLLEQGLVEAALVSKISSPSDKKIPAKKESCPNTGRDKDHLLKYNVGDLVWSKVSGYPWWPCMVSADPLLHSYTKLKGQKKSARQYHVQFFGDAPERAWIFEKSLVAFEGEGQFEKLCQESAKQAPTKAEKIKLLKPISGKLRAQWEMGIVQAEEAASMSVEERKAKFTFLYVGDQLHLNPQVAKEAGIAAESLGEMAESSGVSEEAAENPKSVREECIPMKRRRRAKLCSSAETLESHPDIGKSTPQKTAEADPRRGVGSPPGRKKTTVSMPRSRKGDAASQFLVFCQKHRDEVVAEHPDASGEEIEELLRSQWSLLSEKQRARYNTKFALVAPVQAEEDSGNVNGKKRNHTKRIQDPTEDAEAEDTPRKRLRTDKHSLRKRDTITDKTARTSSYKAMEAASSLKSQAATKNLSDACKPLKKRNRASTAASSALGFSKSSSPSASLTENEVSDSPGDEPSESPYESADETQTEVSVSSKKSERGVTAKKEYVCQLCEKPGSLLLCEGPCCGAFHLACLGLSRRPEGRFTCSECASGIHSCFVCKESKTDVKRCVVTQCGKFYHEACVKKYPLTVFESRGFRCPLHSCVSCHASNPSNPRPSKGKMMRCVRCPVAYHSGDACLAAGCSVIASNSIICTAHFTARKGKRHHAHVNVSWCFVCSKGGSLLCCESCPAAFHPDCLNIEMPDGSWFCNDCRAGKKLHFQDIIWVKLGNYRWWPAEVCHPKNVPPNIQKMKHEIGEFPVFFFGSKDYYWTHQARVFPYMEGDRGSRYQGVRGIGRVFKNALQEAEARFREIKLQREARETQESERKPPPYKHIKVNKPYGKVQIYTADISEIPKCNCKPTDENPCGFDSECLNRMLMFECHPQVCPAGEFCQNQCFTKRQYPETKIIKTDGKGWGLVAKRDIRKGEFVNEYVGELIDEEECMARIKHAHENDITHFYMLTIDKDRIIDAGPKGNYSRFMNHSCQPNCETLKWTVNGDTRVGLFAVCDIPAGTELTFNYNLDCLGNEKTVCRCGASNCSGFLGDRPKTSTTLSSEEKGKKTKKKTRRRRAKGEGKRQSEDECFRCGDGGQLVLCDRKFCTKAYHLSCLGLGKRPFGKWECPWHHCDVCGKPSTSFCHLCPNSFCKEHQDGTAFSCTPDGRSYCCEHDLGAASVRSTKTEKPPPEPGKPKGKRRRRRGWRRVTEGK

[12] = molecular target: T3, RNA-binding protein pos-1 (Caenorhabditis elegans, UniProt G5EF15); assay: inhibitors of POS-1/mex-3 RNA binding, dose response, biochemical, fluorescence polarization (AID 1964);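 further: purified POS-1 fused to maltose binding protein made in E. coli; potency of compounds blocking POS-1 binding to fluorescent RNA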
T3 sequence (G5EF15 whole entry): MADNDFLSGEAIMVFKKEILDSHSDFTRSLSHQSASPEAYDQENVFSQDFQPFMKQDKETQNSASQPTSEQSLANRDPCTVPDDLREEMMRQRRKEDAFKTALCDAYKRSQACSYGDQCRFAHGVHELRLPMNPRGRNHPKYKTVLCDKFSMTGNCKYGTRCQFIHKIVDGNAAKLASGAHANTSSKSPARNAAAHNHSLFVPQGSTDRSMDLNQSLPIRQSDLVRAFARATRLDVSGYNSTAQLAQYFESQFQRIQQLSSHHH

[13] = molecular target: T4, Zinc finger protein mex-5 (Caenorhabditis elegans, UniProt Q9XUB2); assay: MEX-5/TCR-2 RNA interaction inhibitors, dose response, biochemical, C. elegans, fluorescence polarization (AID 1960)
T4 sequence (Q9XUB2 whole entry): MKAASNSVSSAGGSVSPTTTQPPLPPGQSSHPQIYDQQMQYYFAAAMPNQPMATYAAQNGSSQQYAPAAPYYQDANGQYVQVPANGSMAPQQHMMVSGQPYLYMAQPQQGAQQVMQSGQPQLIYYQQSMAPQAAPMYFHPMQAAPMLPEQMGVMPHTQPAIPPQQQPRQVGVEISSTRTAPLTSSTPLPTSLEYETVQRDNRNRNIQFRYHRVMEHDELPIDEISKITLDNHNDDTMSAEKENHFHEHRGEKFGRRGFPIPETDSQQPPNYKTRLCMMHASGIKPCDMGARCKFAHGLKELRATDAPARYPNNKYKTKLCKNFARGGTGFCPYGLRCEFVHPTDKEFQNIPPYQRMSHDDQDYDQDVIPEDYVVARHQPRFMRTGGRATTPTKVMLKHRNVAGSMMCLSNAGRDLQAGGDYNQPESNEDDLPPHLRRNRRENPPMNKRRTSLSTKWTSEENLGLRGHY

[14] = molecular target: T5, Heat shock factor protein 1 (Mus musculus, UniProt P38532); assay: inhibition of MG132-induced HSE-luciferase signal, confirmation, cell-based, NIH3T3, luminescence, dose retest (AID 2382); assay type: functional;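 further: NIH3T3 fibroblasts with HSF1-driven luciferase reporter stressed by proteasome inhibitor MG132; luminescence from HSF1-driven luciferase expression after 8 hours of MG132 stress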
T5 sequence (P38532 whole entry): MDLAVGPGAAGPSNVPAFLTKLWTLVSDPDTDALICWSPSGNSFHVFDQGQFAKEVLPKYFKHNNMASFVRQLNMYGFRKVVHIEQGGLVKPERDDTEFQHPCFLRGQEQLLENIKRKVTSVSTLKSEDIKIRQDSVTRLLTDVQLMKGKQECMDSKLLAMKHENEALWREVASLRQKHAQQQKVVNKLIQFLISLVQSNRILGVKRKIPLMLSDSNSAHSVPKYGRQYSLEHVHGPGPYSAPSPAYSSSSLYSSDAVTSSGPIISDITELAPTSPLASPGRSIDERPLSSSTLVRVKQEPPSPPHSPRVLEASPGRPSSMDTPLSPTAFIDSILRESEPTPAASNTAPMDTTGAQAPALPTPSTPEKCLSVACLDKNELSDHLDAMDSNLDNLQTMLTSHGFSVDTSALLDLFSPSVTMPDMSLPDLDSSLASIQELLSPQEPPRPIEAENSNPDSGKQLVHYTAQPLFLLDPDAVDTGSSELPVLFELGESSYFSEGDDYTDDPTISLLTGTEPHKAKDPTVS

[15] = molecular target: T6, Fatty acid synthase (Homo sapiens, UniProt P49327); assay: FAS thioesterase domain inhibitors, dose response, biochemical, endpoint fluorescence intensity, uHTS hits (AID 624327); assay type: functional;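 further: fluorescence from hydrolysis of an O-methyl fluorescein acyl ester substrate by the enzyme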
T6 sequence (P49327 whole entry, the tested form may be a part): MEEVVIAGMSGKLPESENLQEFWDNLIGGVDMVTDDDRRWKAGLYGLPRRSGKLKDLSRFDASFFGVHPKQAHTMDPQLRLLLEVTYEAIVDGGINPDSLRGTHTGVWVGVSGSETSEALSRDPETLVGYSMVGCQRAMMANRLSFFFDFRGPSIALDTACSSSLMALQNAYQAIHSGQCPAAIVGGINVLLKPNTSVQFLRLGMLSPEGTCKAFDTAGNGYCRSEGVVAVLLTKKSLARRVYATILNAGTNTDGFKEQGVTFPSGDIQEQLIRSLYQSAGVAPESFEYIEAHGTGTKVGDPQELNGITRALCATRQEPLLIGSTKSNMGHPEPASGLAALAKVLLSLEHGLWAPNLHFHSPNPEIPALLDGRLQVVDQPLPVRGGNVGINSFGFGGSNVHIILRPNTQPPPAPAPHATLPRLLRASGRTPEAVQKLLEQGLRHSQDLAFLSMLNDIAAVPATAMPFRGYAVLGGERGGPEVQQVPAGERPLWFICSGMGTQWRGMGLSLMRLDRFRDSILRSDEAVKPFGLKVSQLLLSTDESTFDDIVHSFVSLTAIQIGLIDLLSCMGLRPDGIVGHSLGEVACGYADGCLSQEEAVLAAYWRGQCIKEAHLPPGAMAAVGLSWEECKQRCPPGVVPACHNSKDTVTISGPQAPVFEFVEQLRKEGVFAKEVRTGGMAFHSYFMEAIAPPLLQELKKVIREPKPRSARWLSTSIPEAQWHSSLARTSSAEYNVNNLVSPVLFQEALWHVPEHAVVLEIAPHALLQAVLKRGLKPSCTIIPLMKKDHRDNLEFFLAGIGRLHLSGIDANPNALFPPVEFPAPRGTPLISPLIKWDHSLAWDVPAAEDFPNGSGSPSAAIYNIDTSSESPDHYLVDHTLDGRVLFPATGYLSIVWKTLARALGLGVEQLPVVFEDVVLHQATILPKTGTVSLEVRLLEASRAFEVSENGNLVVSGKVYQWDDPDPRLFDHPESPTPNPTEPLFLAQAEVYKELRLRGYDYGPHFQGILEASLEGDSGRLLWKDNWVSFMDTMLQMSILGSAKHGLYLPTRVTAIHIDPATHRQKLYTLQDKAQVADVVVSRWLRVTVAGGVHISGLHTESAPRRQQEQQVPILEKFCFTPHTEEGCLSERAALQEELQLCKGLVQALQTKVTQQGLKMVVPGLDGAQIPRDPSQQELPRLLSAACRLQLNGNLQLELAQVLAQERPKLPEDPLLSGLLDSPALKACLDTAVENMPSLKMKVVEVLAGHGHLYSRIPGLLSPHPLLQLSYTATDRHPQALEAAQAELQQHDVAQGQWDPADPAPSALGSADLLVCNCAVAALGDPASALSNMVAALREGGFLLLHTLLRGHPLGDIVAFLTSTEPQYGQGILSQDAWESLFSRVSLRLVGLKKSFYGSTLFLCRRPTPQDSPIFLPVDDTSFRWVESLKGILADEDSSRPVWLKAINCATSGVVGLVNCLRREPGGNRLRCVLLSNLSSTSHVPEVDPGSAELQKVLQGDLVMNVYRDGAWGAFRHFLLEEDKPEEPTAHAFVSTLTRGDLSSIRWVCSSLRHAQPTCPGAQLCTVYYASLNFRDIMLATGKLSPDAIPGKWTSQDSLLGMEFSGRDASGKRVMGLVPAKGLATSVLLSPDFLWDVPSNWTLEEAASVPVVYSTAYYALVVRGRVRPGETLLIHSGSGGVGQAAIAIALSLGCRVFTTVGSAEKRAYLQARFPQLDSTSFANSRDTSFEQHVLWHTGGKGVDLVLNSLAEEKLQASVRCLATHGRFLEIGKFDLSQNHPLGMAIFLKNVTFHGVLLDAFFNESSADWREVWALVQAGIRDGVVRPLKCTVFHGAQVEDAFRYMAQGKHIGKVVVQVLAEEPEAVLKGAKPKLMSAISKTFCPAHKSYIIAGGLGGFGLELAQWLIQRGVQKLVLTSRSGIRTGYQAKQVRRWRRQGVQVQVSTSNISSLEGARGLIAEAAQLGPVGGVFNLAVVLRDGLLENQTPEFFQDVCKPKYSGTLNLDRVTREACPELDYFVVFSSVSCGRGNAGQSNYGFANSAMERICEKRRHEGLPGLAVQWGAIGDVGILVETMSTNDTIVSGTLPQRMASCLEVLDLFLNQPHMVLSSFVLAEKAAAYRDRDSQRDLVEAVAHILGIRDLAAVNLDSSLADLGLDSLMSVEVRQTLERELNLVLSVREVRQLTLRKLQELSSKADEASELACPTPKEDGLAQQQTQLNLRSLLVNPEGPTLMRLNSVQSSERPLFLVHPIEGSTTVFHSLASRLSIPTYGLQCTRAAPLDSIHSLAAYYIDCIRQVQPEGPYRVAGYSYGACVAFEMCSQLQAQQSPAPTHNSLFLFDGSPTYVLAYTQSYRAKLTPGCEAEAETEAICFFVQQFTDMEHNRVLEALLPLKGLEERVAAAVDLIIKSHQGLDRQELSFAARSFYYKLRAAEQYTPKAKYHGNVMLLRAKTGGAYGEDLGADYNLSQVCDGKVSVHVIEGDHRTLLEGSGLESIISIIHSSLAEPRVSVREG

[16] = molecular target: T6, Fatty acid synthase; assay: FAS thioesterase domain inhibitors, dose response, biochemical, kinetic fluorescence intensity (AID 624326); assay type: functional;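 further: rate of fluorescence rise from hydrolysis of a fluorogenic O-methyl fluorescein ester substrate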
[17] = cells; assay type: functional, cell-based
[18] = molecular target: Luciferin 4-monooxygenase (Photinus pyralis, UniProt P08659); assay: firefly luciferase enzyme inhibitors, dose response, biochemical, luminescence (AID 1891)
Luciferin 4-monooxygenase, sequence (P08659 whole entry): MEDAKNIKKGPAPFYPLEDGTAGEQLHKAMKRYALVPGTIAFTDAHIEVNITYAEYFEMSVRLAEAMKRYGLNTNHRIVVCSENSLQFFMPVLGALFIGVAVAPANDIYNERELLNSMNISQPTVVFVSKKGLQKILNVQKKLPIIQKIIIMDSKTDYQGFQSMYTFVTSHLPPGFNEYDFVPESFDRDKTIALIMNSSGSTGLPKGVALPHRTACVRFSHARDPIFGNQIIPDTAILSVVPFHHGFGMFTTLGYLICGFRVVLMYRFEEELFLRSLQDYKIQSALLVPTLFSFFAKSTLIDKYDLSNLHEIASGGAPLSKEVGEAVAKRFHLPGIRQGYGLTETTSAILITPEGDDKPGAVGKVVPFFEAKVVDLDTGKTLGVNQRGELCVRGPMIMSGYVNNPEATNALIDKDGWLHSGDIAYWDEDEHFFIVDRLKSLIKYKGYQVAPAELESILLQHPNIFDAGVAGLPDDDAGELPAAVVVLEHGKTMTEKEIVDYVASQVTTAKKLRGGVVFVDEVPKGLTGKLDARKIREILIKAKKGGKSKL

[19] = Luminescence Cell-Based Dose Confirmation HTS to Identify Inhibitors of Platelet Dense Granule Release. [Related pubchem assays: 1663 (Primary HTS), 1678 (Summary of Project)]; assay type: functional
[20] = cells; assay type: functional, cell-based; remark: listed apart in the source

CC(=O)c1cccc(Nc2c3c(nc4ccccc24)CCC3)c1
EC50 [1]: 2.21 µM (active)
EC50 [2]: 30.6 µM (inconclusive)
EC50 [3]: 1.11 µM (active)
EC50 [4]: 0.898 µM (active)

Cc1ccc(C(=O)c2cc([N+](=O)[O-])ccc2N2CCCCC2)cc1
EC50 [5]: 0.129 µM (active)
EC50 [1]: 0.493 µM (inconclusive)
EC50 [6]: 0.303 µM (active)
EC50 [7]: < 0.1 µM (active)
EC50 [2]: 82.5 µM (inconclusive)
EC50 [3]: 0.576 µM (inconclusive)
EC50 [4]: 1.21 µM (active)
IC50 [8]: > 80 µM (inactive)
AC50 [9]: 3.39 µM (active)

CCOc1ccccc1N1CCN(C/C=C/c2ccc(N(C)C)cc2)CC1
IC50 [10]: 75.8 µM (active)
AC50 [11]: 15.5 µM (active)

CCCCC1=CC2=CC(=O)C(C)(O)C(=O)C2=CO1 (configuration not stated)
EC50 [12]: 55.3 µM (active)
EC50 [13]: 23.5 µM (active)

O=C(O)c1ccc(CN2C(=O)c3cccc4c([N+](=O)[O-])ccc(c34)C2=O)cc1
EC50 [1]: 9.19 µM (active)
EC50 [14]: 6.53 µM (active)
EC50 [2]: 12.9 µM (active)
EC50 [3]: 10.6 µM (inconclusive)
EC50 [4]: 10.9 µM (inconclusive)

COC(=O)c1c(O)[n+]([O-])c2ccc(OC)cc2[n+]1[O-]
EC50 [12]: 14.1 µM (active)
EC50 [13]: > 300 µM (inconclusive)

O=C(CC1C[C@H](C(=O)N2CCOCC2)[C@@]2(CCC3CCCC3)c3[nH]c4ccccc4c3CCN2C1=O)NCCc1ccccn1 (some centres not stated)
IC50 [15]: 1.37 µM (active)
IC50 [16]: 1.09 µM (active)

Cc1ccc(-c2nnc(Nc3ccc(CC(N)=O)cc3)c3ccccc23)cc1S(N)(=O)=O
EC50 [12]: > 300 µM (not active)
EC50 [13]: > 300 µM (not active)

CC1=N/C(=C/c2ccco2)C(=O)O1
EC50 [12]: 71.1 µM (active)
EC50 [13]: 33.1 µM (active)

Cc1ccc(NC(=O)c2cc([N+](=O)[O-])ccc2N2CCCC2)cc1
IC50 [15]: 8.09 µM (active)
IC50 [16]: 5.53 µM (active)

CCOc1ccc(C(=O)COC(=O)c2cc([N+](=O)[O-])ccc2N2CCOCC2)cc1
IC50 [15]: 6.76 µM (active)
IC50 [16]: 5.81 µM (active)

C[C@H](CO)N1C[C@H](C)[C@@H](CN(C)Cc2ccc(Cl)c(Cl)c2)Oc2c(NS(=O)(=O)c3ccc(F)cc3)cccc2C1=O
IC50 [15]: 11.9 µM (active)
IC50 [16]: 13.2 µM (active)

Cn1c(N/N=C/c2cc3ccccc3nc2Cl)nc2ccccc21
EC50 [1]: 6.15 µM (inconclusive)
EC50 [17]: > 350 µM (not active)
EC50 [2]: 2.58 µM (active)
EC50 [18]: 0.687 µM (active)
EC50 [19]: 6.52 µM (active)
EC50 [20]: 7.59 µM (active)
EC50 [3]: > 150 µM (not active)
EC50 [4]: 25.7 µM (active)

C/C(=N/N=C/c1ccc(N(C)C)cc1)c1ccccc1
EC50 [1]: 26.5 µM (active)
EC50 [2]: 13.5 µM (active)
EC50 [18]: 0.875 µM (active)
EC50 [19]: 1.61 µM (active)
EC50 [3]: > 150 µM (not active)
EC50 [4]: 17.1 µM (active)

CC(C)(C)c1ccc(/C=N/NC(=S)NC2CCCCC2)cc1
IC50 [15]: 12.7 µM (active)
IC50 [16]: 15.4 µM (active)

Cc1cc(=O)n2c(n1)/C(=N\Nc1ccccc1)C(=O)N2
EC50 [12]: 0.374 µM (inconclusive)
EC50 [14]: > 195 µM (not active)

O=C(N/N=C/c1ccc(Br)o1)/C(=C/c1ccc([N+](=O)[O-])cc1)NC(=O)c1ccccc1
IC50 [15]: 9.86 µM (active)
IC50 [16]: 10.8 µM (active)

O=C1c2cc(O)c(O)cc2OC(c2ccc(O)c(O)c2)C1O (configuration not stated)
AC50 [11]: 12.9 µM (active)

— ChEMBL document CHEMBL1201862, “PubChem BioAssay data set” (2004)
